Read-outs that look alike come from different tables or passages of the source.
How the values were obtained:
[1] = tested on: retinal isomerase activity (regeneration of 11-cis-retinal); assay: Comparative in vivo murine isomerase assay, dose response (compound A vs compound D); design: species or system BALB/c mice
Method: (§1) All test compounds were stored at room temperature, dessicated.
On the day prior to dose administration compound A and compound D were weighed into new empty glass vials. The compounds were dissolved in di-water at the concentration of 0.833 mg/mL compound A and 0.892 mg/mL compound D, serially diluted into various concentrations, and stored overnight at 4 OC.
56 Male BALB/c mice (Charles River Laboratories) were used for this study. The mice were approximately 8 weeks at the initiation of dosing with an average body weight of 24 grams.
The day prior to dose administration 56 BALB/c mice were placed into a dark room and dark adapted for a minimum of 12 hours prior to dose administration. The mice were maintained in the dark for the duration of the study.
Each animal was removed from its cage and dosed accordingly to the study design in Table 4 (see below). Each animal was administered 0.1 mL of the appropriate compound or vehicle via oral gavage using a 1 mL syringe fitted with a 23 gauge oral gavage needle. Two hours following dose administration, animals were removed from the dark and exposed to 5000 Lux white light for 10 minutes to photobleach their eyes.
Following the completion of the photobleach the animals were returned to the dark for 2 hours to allow for the regeneration of 11-cis-retinal in the eyes. Two hours after photobleaching each animal was euthanized with carbon dioxide followed by cervical dislocation, in the dark under red light. The light control group was euthanized immediately following photobleaching. Immediately following the cervical dislocation both eyes of each animal were removed and transferred into separate tubes, flash frozen in liquid nitrogen and stored in the dark at −80° C. until processing and analysis.
(§2) All sample processing procedures were performed in the dark under red light.
Extracted samples were analyzed using an Agilent 1100 HPLC system according to the procedure outlined in Table 6 (see below)
(§3) HPLC analysis of the eyes measures the peak area units of the 110 cis-Ral-Oxime_syn. Signal.
(§4) Data analysis % inhibition (drug vs. recovery control). % control (drug vs. light control), and One-way ANOVA (followed by Tukey's Multiple Comparison) were performed using peak area units and performed by Prism software. Data are represented as mean and standard deviation.

[2] = tested on: isomerase (recovery of 11-cis-retinal after bleaching); assay: In vivo murine isomerase assay (Table 3); conditions: Mus musculus, po, mice
Method: The capability of compounds described herein to inhibit isomerase was determined by an in vivo murine isomerase assay. […] The recovery of 11-cis-retinal after bleaching can be used to estimate the activity of isomerase in vivo. Delayed recovery, as represented by lower 11-cis-retinal oxime levels, indicates inhibition of isomerization reaction.
Mice were gavaged with the test compound. […] The mice were allowed to recover 2 hours in the dark. The animals were then sacrificed by carbon dioxide inhalation. Retinoids were extracted from the eye and the regeneration of 11-cis-retinal was assessed at various time intervals.
After the mice were sacrificed, the eyes were immediately removed and placed in liquid nitrogen for storage.
The eyes were placed in 500 μL of bis-tris propane buffer (10 mM, pH˜7.3) and 20 μL of 0.8M hydroxile amine (pH˜7.3). The eyes were cut up into small pieces with small iris scissors and then thoroughly homogenized at 30000 rpm with a mechanical homogenizer (Polytron PT 1300 D) in the tube until no visible tissue remained. 500 μL of methanol and 500 μL of heptane were added to each tube. The tubes were attached to a vortexer so that the contents were mixed thoroughly for 15 minutes in room temperature. The organic phase was separated from the aqueous phase by centrifugation for 10 min at 13K rpm, 4° C. 240 μL of the solution from the top layer (organic phase) was removed and transferred to clean 300 μl glass inserts in HPLC vials using glass pipette and the vials were crimped shut tightly.
The samples were analyzed on an Agilent 1100 HPLC system with normal phase column: SILICA (Beckman Coutlier, dp 5 μm, 4.6 mM×250 mM). […] Loading volume for each sample was 100 μl; detection wavelength was 360 nm. The area under the curve for 11-cis retinal oxime was calculated by Agilent Chemstation software and was recorded manually. Data processing was performed using Prizm software.
Positive control mice (no compound administered) were sacrificed fully dark-adapted and the eye retinoids analyzed. Light (bleached) control mice (no compound administered) were sacrificed and retinoids isolated and analyzed immediately after light treatment.
A time course study was performed to determine the isomerase inhibitory activity of the test compound. […] The animals were then “photo-bleached” (5000 Lux white light for 10 minutes) at 2, 4, 8, 16 and 24 hours after dosing, and returned to darkness to allow recovery of the 11-cis-retinal content of the eyes. Mice were sacrificed 2 hours after bleaching, eyes were enucleated, and retinoid content is analyzed by HPLC.
Recovery control mice (vehicle-only treated) were light-treated and left to recover for 2 hours in the dark before sacrifice and analysis. Light control mice (vehicle only treated) were sacrificed for analysis immediately after photo-bleaching.
An in vivo dose response isomerase inhibition study was performed with test compound. […] Recovery and retinoid analysis were performed as described above. Dark control mice were vehicle-only treated, sacrificed fully dark adapted without light treatment, and analyzed. Recovery control mice and light control mice were included in the study as per the initial phase.

[3] = tested on: regeneration of 11-cis-retinal (isomerase); assay: Single dose time course in the in vivo isomerase assay at 0.3 mg/kg (compound A vs compound D); conditions: BALB/c mice, single oral dose 0.3 mg/kg; for inhibition at 0.3 mg/kg: Mus musculus, read-out: Percent Inhibition, 0.3 mg/kg, Avg. % Inhibition
Method: as §1
On the day prior to dose administration 3-amino-1-(3-((tetrahydro-2H-pyran-4-yl)methoxy)phenyl)propan-1-ol (compound A) and 3-amino-1-(3-((tetrahydro-2H-pyran- 2-yl)methoxy)phenyl)propan-1-ol (compound D) were weighed into new empty glass vials. The compounds were dissolved in di-water at the concentration of 0.068 mg/mL and stored overnight at 4° C.
52 Male BALB/c mice (Charles River Laboratories) were used for this study. The mice were approximately 8 weeks at the initiation of dosing with an average body weight of 23 grams.
The day prior to dose administration 52 BALB/c mice were placed into a dark room and dark adapted for a minimum of 12 hours prior to dose administration. The mice were maintained in the dark for the duration of the study.
Each animal was removed from its cage and dosed accordingly to the study design in Table 10 (see below). Each animal was administered 0.1 mL of the appropriate test article or vehicle orally using a 1 mL syringe fitted with a 23 gauge oral gavage needle. At 2, 4, 6, 8, 16 or 24 hours following dose administration, animals were removed from the dark and exposed to 5000 Lux white light for 10 minutes to photobleach their eyes. Following the completion of the photobleach the animals were returned to the dark for 2 hours to allow for the regeneration of 11-cis-retinal in the eyes. Two hours after photobleaching each animal was euthanized with carbon dioxide followed by cervical dislocation, in the dark under red light. The light control group was euthanized immediately following photobleaching. Immediately following the cervical dislocation both eyes of each animal were removed and transferred into separate tubes, flash frozen in liquid nitrogen and stored in the dark at −80° C. until processing and analysis.
as §2
Extracted samples were analyzed using an Agilent 1100 HPLC system according to the procedure outlined in Table 12 (see below)
as §3, §4

What does the source list for NCC[C@@H](O)c1cccc(OCC2CCOCC2)c1 [Example 1]?
dose at which 11-cis-retinal recovery was inhibited by 50% (called IC50) ([1]; BALB/c mice, single oral dose, 2 h, dose response experiment): 0.17 mg/kg; inhibition at 0.03 mg/kg ([1]; Mus musculus, po, 2 h, BALB/c mice, single oral dose 0.03 mg/kg, bleach 2 h after dose, drug vs. recovery control, read-out: Percent Inhibition at 2 Hours, Avg. % Inhibition): -44.1%; inhibition at 0.1 mg/kg ([1]; Mus musculus, po, 2 h, BALB/c mice, single oral dose 0.1 mg/kg, bleach 2 h after dose, drug vs. recovery control, read-out: Percent Inhibition at 2 Hours, Avg. % Inhibition): -9.8%; inhibition at 0.3 mg/kg ([1]; Mus musculus, po, 2 h, BALB/c mice, single oral dose 0.3 mg/kg, bleach 2 h after dose, drug vs. recovery control, read-out: Percent Inhibition at 2 Hours, Avg. % Inhibition): > 90%; inhibition at 0.5 mg/kg ([1]; Mus musculus, po, 2 h, BALB/c mice, single oral dose 0.5 mg/kg, bleach 2 h after dose, drug vs. recovery control, read-out: Percent Inhibition at 2 Hours, Avg. % Inhibition): ~100%; inhibition at 1 mg/kg ([1]; Mus musculus, po, 2 h, BALB/c mice, single oral dose 1 mg/kg, bleach 2 h after dose, drug vs. recovery control, read-out: Percent Inhibition at 2 Hours, Avg. % Inhibition): 100%; inhibition at 3 mg/kg ([1]; Mus musculus, po, 2 h, BALB/c mice, single oral dose 3 mg/kg, bleach 2 h after dose, drug vs. recovery control, read-out: Percent Inhibition at 2 Hours, Avg. % Inhibition): 105%; activity at 0.03 mg/kg ([1]; Mus musculus, BALB/c mice, single oral dose 0.03 mg/kg, bleach 2 h after dose, read-out: Percent control at 2 Hours (Avg. % Inhibition)): 144%; activity at 0.1 mg/kg ([1]; Mus musculus, BALB/c mice, single oral dose 0.1 mg/kg, bleach 2 h after dose, read-out: Percent control at 2 Hours (Avg. % Inhibition)): 110%; activity at 0.3 mg/kg ([1]; Mus musculus, BALB/c mice, single oral dose 0.3 mg/kg, bleach 2 h after dose, read-out: Percent control at 2 Hours (Avg. % Inhibition)): 7.6%; activity at 0.5 mg/kg ([1]; Mus musculus, BALB/c mice, single oral dose 0.5 mg/kg, bleach 2 h after dose, read-out: Percent control at 2 Hours (Avg. % Inhibition)): 0.7%; activity at 1 mg/kg ([1]; Mus musculus, BALB/c mice, single oral dose 1 mg/kg, bleach 2 h after dose, read-out: Percent control at 2 Hours (Avg. % Inhibition)): -0.4%; activity at 3 mg/kg ([1]; Mus musculus, BALB/c mice, single oral dose 3 mg/kg, bleach 2 h after dose, read-out: Percent control at 2 Hours (Avg. % Inhibition)): -5.2%; dose showing nearly 100% inhibition ([1]; dose response experiment, 2 h): 0.5 mg/kg; times more active than compound D, by dose for nearly 100% inhibition ([1]; dose response experiment, 2 h): approximately 6 ×; times more active than compound D, by inhibition at a dose of 0.3 mg/kg ([1]; dose response experiment, 2 h): greater than 10 ×; inhibition at 0.03 mg/kg ([2]; 2 h, Dose 0.03 mg/kg): -2.7%; inhibition at 0.1 mg/kg ([2]; 2 h, Dose 0.1 mg/kg): 3.4%; inhibition at 0.3 mg/kg ([2]; 2 h): 58.4%; inhibition at 0.5 mg/kg ([2]; 2 h, Dose 0.5 mg/kg): 89.9%; inhibition at 0.81 mg/kg ([2]; 2 h): 98.2%; inhibition at 1 mg/kg ([2]; 2 h): 96.9%; inhibition at 3 mg/kg ([2]; 2 h, Dose 3 mg/kg): 101%; inhibition at 0.3 mg/kg ([2]; 4 h): 15.7%; inhibition at 0.81 mg/kg ([2]; 4 h): 87.9%; inhibition at 1 mg/kg ([2]; 4 h): 91.1%; inhibition at 0.81 mg/kg ([2]; 6 h): 75.8%; inhibition at 0.3 mg/kg ([2]; 8 h): 10.4%; inhibition at 0.81 mg/kg ([2]; 8 h): 51.8%; inhibition at 1 mg/kg ([2]; 8 h): 62%; inhibition at 0.3 mg/kg ([2]; 16 h): -2.7%; inhibition at 0.81 mg/kg ([2]; 16 h): 5.5%; inhibition at 1 mg/kg ([2]; 16 h): -1.2%; inhibition at 0.3 mg/kg ([2]; 24 h): -4.4%; inhibition at 0.81 mg/kg ([2]; 24 h): -4.8%; inhibition at 1 mg/kg ([2]; 24 h): 3.8%; Percent Control, 0.3 mg/kg (average) ([3]; Time Point 2 Hours): 2.0%; Percent Control, 0.3 mg/kg (average) ([3]; Time Point 4 Hours): 11.5%; Percent Control, 0.3 mg/kg (average) ([3]; Time Point 6 Hours): 43.7%; Percent Control, 0.3 mg/kg (average) ([3]; Time Point 8 Hours): 79.8%; Percent Control, 0.3 mg/kg (average) ([3]; Time Point 16 Hours): 98.5%; Percent Control, 0.3 mg/kg (average) ([3]; Time Point 24 Hours): 95.8%; inhibition at 0.3 mg/kg ([3]; Time Point 2 Hours): 98%; inhibition at 0.3 mg/kg ([3]; Time Point 4 Hours): 88.5%; inhibition at 0.3 mg/kg ([3]; Time Point 6 Hours): 56.3%; inhibition at 0.3 mg/kg ([3]; Time Point 8 Hours): 20.2%; inhibition at 0.3 mg/kg ([3]; Time Point 16 Hours): 1.5%; inhibition at 0.3 mg/kg ([3]; Time Point 24 Hours): 4.2%
